The target of test [1] is T1, purified VDAC1 (Homo sapiens, UniProt P21796). The test can be described thus: Microscale thermophoresis (MST). Format: binding. How it is done: MST analysis was performed using a NanoTemper Monolith NT.115 apparatus as described previously. Briefly, purified VDAC1 was fluorescently labeled using a NanoTemper Protein labeling kit BLUE (L001, NanoTemper Technologies, Munich, Germany). A constant concentration of the protein (66 nM) was incubated with different concentrations of the indicated peptide in MST binding buffer (10 mM tricine-HCl, 100 mM NaCl, pH = 7.4) for 30 min at 37 °C in the dark. Afterwards, 3–5 µl of the samples were loaded into a monolith glass capillary (NanoTemper) and a thermophoresis analysis was performed (LED 80%, IR laser 80%).

Test [2] concerns the target T1, purified VDAC1. Put plainly: Glass-bound peptide array probed with purified VDAC1 and anti-VDAC1 antibodies. In kind it is binding. More on the design: key: +: low; ++: medium; +++: high. To be noted: glass-bound peptide array incubated 4 h with purified VDAC1 (64 nM), chemiluminescence; for Spot intensity, detected using anti-N-terminus VDAC1: antibody against VDAC1 N-terminus; for Spot intensity, detected using anti-VDAC1 internal sequence: antibody against VDAC1 amino acids 150-250. The procedure: A customized peptide array was produced by INTAVIS Peptide Services (GmbH & Co. KG, Tübingen, Germany). It comprised 768 peptide sequences derived from 19 VDAC1-interacting proteins that were arrayed on a glass slide. Each peptide was composed of 25 amino acids with an overlap of 15 amino acids with the peptides before and following it.
The interaction of purified VDAC1 with glass-bound peptide arrays was assessed by washing the slide three times, 10 min each, with TBST (150 mM NaCl, 50 mM Tris/HCl, pH 7.4, 0.1% Tween-20), followed by overnight incubation with blocking buffer (TBS, pH 7.8, containing low-fat dry milk, 2.5%, w/v) at 4 °C. Then slides were incubated with purified VDAC1 in protein-interacting buffer (20 mM HEPES, 100 mM KCl, pH,7.4, PBS) for 4 h at room temperature (RT). After washing, with TBST, slides were incubated overnight at 4 °C with anti-VDAC1 antibody against a sequence of 150–250 amino acids or against the VDAC1-N-terminus. Slides were then washed with TBST, followed by the appropriate secondary anti-HRP conjugated antibody for 2 h at RT. They were washed again with TBST and developed using enhanced chemiluminescence EZ-ECL (Biological Industries), according to the manufacturer’s instructions. The signal was captured in the dark using FUSION-FX (Vilber Lourmat) software.

From PMC12669278, “VDAC1-interacting proteins: binding site mapping and their derived peptides induce apoptosis and multifaceted cellular effects” (Apoptosis, 2025) come the findings set out here.

By Kd is commonly meant a measure of binding affinity in units of concentration.

Where two headings read alike, the source gives them in different places. No end group written: not given here.

T1 sequence (P21796 whole entry, species assumed): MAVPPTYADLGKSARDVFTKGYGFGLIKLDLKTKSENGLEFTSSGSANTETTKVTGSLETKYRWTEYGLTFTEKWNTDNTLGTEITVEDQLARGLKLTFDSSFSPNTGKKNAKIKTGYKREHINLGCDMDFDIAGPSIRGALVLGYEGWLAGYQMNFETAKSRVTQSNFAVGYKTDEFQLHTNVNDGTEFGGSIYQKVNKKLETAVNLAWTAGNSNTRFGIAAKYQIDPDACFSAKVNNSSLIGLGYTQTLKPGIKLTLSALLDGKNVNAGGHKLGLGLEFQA

Regarding NEFGYSNRVVDLMAHMASKE [2D1], the Kd in test [1] (fluorescently labeled VDAC1 66 nM, peptide 2.5-30 µM, 30 min at 37 °C, read-out: Kd) worked out at 8 µM.
Consider “IMKTGALLLQGFIQDRAGRMGGEAP [1A22, array peptide from BAX]”, for which, in test [2], the “Spot intensity, detected using anti-N-terminus VDAC1” value was “+++”.
“YQVSPLAARLLYPYLAWLAFTTTLN [1H11, array peptide from TSPO]”: the “Spot intensity, detected using anti-VDAC1 internal sequence” value in test [2] is on record as “+”.
For the sequence “TAFQGMLRKLDIKNEDDVKSLSRVM [2E5, array peptide from Mcl-1]”, the “Spot intensity, detected using anti-N-terminus VDAC1” value in test [2] is recorded as “+”.
“RYGRELRRMSDEFVDSFKKGLPRPK [1A13, array peptide from BAD]”: in test [2], the “Spot intensity, detected using anti-N-terminus VDAC1” value is listed as “+”.
For the sequence “NGKLVINGNPITIFQERDPSKIKWG [2B21, array peptide from GAPDH1]”, the “Spot intensity, detected using anti-N-terminus VDAC1” value in test [2] is “+”.
Still for that read-out and setting: the result for “GKEPAHLMSLFGGKPMIIYKGGTSR [2I13, array peptide from gelsolin isoform b]” reads “+”; that for “MTEQAISFAKDFLAGGIAAAISKTA [1F12, array peptide from ANT3]”, “+”.
In the case of “MVVEHPEFLKAGKEPGLQIWRVEKFRQIKIWFQNRRMKWKK [2G8-Antp]”, the dissociation constant (Kd) in test [1] was 5 µM.
On to “TGSGFTSLLMERLSVDYGKKSKLEF [2A4, array peptide from tubulin alpha 1b]”, for which, in test [2], the “Spot intensity, detected using anti-N-terminus VDAC1” value was “+” and the “Spot intensity, detected using anti-VDAC1 internal sequence” value is reported as “+”.
On to “GTATQMRQSSSWTRVFQSWWDRNLG [1A16, array peptide from BAD]”, for which, in test [2], the “Spot intensity, detected using anti-N-terminus VDAC1” value was “++”.
Same read-out and setting: the result for “VDCIVRIPKEQGVLSFWRGNLANVI [1F18, array peptide from ANT3]” reads “++”.
